Reference: patent US20030203888A1, “Chromophores” (priority 2001, published 2003)

Tests used:
[1] = Solubility in water of the chloride salts
[2] = target: BSA (Bos taurus, UniProt P02769); assay: 'Blank' bioconjugation: non-covalent binding of unreactive fluorophore to BSA (gel filtration, UV analysis); conditions: after PD-10 gel filtration
From the text: (§1) Experiments have been undertaken to determine the level of non-covalent binding of fluorophore to the protein surface (BSA and avidin). ‘Blank’ bioconjugations using mixtures of the unreactive DPCH and DPBC derivatives 2,3-dihydroxy-5-(4-methoxyphenyl)-15-(4-acetomidophenyl)chlorin (higher Rf regioisomer) and 2,3,12,13-tetrahydroxy-5-(4-acetomidophenyl)-15-(4-methoxyphenyl) bacteriochlorin (higher Rf […] stereoisomer) with both BSA and avidin have been carried out and the resultant protein solutions have been purified by gel filtration (PD-10) as described for the reactive probes described earlier. […] For BSA or avidin, 1 unreactive DPCH binds to each protein molecule, whereas DPBC is less than 1 due probably to its increased polarity and non-amphiphilic nature.

[3] = target: avidin (Gallus gallus, UniProt P02701); assay: 'Blank' bioconjugation: non-covalent binding of unreactive fluorophore to avidin (gel filtration, UV analysis); conditions: after PD-10 gel filtration
From the text: as §1

[4] = test system: Colo 320 cells; assay: FACS conjugate binding analysis; assay type: cell-based, human; conditions: FITC detection, 3 repeats
Experimental: Wash flask of cells with phosphate buffered saline (PBS) pH 7.3. Treat with 5 mM EDTA in PBS for 10 min at 37C. Tap flask to dislodge cells, place in 50 mL polypropylene tube and pellet at 400 g 3 min. Resuspend in 10 mL PBS and count cells. Place 2×10^5 in FACS tube (Falcon 2054) and wash with 1 mL PBS by centrifugation (400 g 3 min) and resuspension by agitation
Block cells in 500 μL 2% Marvel milk powder in PBS, 1% BSA 30 min RT
Wash cells in 1 mL PBS/BSA/Azide centifuge and resuspend pellet (as above)
Add 10 μL appropriate antibody dilution. Incubate on ice 1 h
Add 50 μL Rabbit anti-mouse:FITC (Serotec, 1/100 dilution) and incubate on ice in the dark 1 h
Wash cells in 1 mL PBS/BSA/Azide centiflige (as above) and resuspend pellet in 400 μL PBS/BSA/Azide.
Run samples through FACS machine using CellQuest acquisition software to collect data.
FACS analyses were run in accordance with Methodology Description 5.

[5] = test system: Colo 320 cells; assay: Standard photocytotoxicity test (MTT); assay type: cell-based, human; conditions: 3.6J/cm2 filtered red light, MTT % cell survival
Experimental: Cells are grown to confluence or appropriate density then washed 2 times with PBS (phosphate buffered saline) to eliminate all trace of FBS (fretal bovine serum). Cell density is adjusted to 1.5×10^6 cells/ml in medium without FBS and these are then incubated for 1 hour in the dark (37 degrees C., 5% CO2) with a range of photosensitiser/conjugate concentrations. Post incubation, cells are washed further with medium (without FBS)to eliminate unbound photosensitiser, then resuspended and seeded in 96 wells plates (1×10^5 cells/well) in quadruplate. Plates are then either irradiated (3.6J/cm2 of filtered red light […]) or left in the dark as “dark toxicity controls” for the same period of time (14 minutes).Five microliters (5%/well) of FBS is added after the irradiation/dark period and the plates are returned to the incubator overnight. Twenty to 24 hours after treatment, 10 μl of MTT solution (Sigma Thiazolyl blue, 4.8×10^−4M in PBS)is added per well and the plates are returned to the incubator until color develops (between 1 and 4 hours). A solution of acid-alcohol (100 μl/well of 0.04N HCL in isopropanol) is the added and mixed thoroughly to dissolve the dark blue crystals. Plates are then read at 570 nm in a microplate reader and the % cell survival calculated against controls. […]

Chain of avidin (P02701 25-152, species assumed): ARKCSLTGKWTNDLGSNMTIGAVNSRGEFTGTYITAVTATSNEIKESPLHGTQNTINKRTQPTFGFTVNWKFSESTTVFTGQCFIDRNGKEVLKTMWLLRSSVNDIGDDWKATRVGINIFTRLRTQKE
Chain of BSA (P02769 25-607): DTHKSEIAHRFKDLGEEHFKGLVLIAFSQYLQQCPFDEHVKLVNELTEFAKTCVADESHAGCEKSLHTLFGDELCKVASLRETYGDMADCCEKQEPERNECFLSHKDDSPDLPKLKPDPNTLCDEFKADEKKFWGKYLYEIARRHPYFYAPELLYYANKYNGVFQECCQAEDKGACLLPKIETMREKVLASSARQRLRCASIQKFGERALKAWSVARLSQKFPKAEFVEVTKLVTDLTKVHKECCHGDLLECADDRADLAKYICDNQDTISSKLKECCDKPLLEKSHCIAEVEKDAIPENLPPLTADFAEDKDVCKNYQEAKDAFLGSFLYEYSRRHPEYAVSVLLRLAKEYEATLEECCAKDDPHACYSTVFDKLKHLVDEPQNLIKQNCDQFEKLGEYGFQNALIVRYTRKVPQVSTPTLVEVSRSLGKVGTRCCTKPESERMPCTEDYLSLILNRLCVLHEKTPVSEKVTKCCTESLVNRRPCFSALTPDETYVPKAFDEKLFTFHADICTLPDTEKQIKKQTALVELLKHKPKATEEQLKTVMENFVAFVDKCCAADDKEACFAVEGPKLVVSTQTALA

Molecule: Oc1cc(O)cc(-c2c3nc(c(-c4cc(O)cc(O)c4)c4ccc([nH]4)c(-c4cc(O)cc(O)c4)c4nc(c(-c5ccc(N=C=S)cc5)c5ccc2[nH]5)C=C4)C=C3)c1
- melting point: > 350 °C (dec.)

Molecule: S=C=Nc1ccc(-c2c3nc(c(-c4ccncc4)c4ccc([nH]4)c(-c4ccncc4)c4nc(c(-c5ccncc5)c5ccc2[nH]5)C=C4)C=C3)cc1
- melting point: > 350 °C (dec.)

Molecule: S=C=Nc1ccc(-c2c3nc(c(-c4cccnc4)c4ccc([nH]4)c(-c4cccnc4)c4nc(c(-c5cccnc5)c5ccc2[nH]5)C=C4)C=C3)cc1
- melting point: > 350 °C (dec.)

Molecule: 5-(4-Isothiocyanatophenyl)-10,15,20-tris(4-N-methylpyridiniumyl) porphyrin Trichloride [Example 6]
- solubility in water [1]: water soluble

Molecule: COc1ccc(-c2c3nc(cc4ccc([nH]4)c(-c4ccc(NC(C)=O)cc4)c4nc(cc5ccc2[nH]5)C=C4)C(O)C3O)cc1 (stereo not shown) [Example 10, 17,18-Dihydroxy-5-(4-acetamidophenyl)-15-(4-methoxyphenyl)chlorin]
- unreactive fluorophore molecules non-covalently bound to each protein molecule [2]: 1
- unreactive fluorophore molecules non-covalently bound to each protein molecule [3]: 1

Molecule: COc1ccc(-c2c3nc(cc4ccc([nH]4)c(-c4ccc(NC(C)=O)cc4)c4nc(cc5ccc2[nH]5)C(O)C4O)C(O)C3O)cc1 (stereo not shown) [Example 12, 7,8,17,18-tetrahydroxy-5-(4-acetamidophenyl)-15-(4-methoxyphenyl)bacteriochlorin]
- unreactive fluorophore molecules non-covalently bound to each protein molecule [2]: less than 1
- unreactive fluorophore molecules non-covalently bound to each protein molecule [3]: less than 1

Molecule: Nc1ccc(-c2c3nc(c(-c4cc(O)cc(O)c4)c4ccc([nH]4)c(-c4cc(O)cc(O)c4)c4nc(c(-c5cc(O)cc(O)c5)c5ccc2[nH]5)C=C4)C=C3)cc1 [OH6-NH2, 5-(4-Aminophenyl)-10,15,20-tris(3,5-dihydroxyphenyl)porphyrin]
- melting point: > 350 °C (dec.)

B1: OH6/17.1A: OH6 conjugated with 17.1A monoclonal antibody, MRs of 2.5, 5, 10 and 20 (conjugate, chains of the INN, looked up)
VH: QVQLQQSGAELVRPGTSVKVSCKASGYAFTNYLIEWVKQRPGQGLEWIGVINPGSGGTNYNEKFKGKATLTADKSSSTAYMQLSSLTSDDSAVYFCARDGPWFAYWGQGTLVTVSA
VL: NIVMTQSPKSMSMSVGERVTLTCKASENVVTYVSWYQQKPEQSPKLLIYGASNRYTGVPDRFTGSGSATDFTLTISSVQAEDLADYHCGQGYSYPYTFGGGTKLEIK
modifications: conjugated to OH6
- binding to Colo 320 cells [4]: has bound to the cells
- photocytotoxicity following irradiation [5]: significant increase in cytotoxicity on irradiation

B2: PYR/17.1A: PYR conjugated with 17.1A monoclonal antibody (conjugate, chains of the INN, looked up)
VH: B1 VH
VL: B1 VL
modifications: conjugated to PYR
notes: PYR conjugated with 17.1A monoclonal antibody
- binding to Colo 320 cells [4]: has bound to the cells
- photocytotoxicity following irradiation [5]: significant increase in cytotoxicity on irradiation
